{"source": "patent US10045978B2", "about": "(AB SCIENCE, priority 2010, dated 2018)", "key": {"[1]": {"system": "patients with indolent mastocytosis with handicap bearing the D816V c-Kit mutation", "experiment": "Example 2 phase 2a study, safety", "type": "in vivo, human"}, "[2]": {"system": "patients with indolent mastocytosis with handicap bearing the D816V c-Kit mutation", "experiment": "Example 3 a posteriori analysis of new handicap and response criteria", "type": "in vivo, human", "from_the_text": "Of relevance to the invention described, the concepts of a restricted mast cell mediator release associated handicap population and a more stringently defined response criterion have been explored via a posteriori data analysis of a common study population. […] (Note, any discrepancies between directly equivalent data presented in example 2 and example 3 are due to the former being taken from preliminary data analysis and the latter being extended/validated data from that study).\nA posteriori data analysis was carried out on a new, restricted mast cell mediator release associated handicap population (wherein patients were classified as having a handicap if after appropriate symptomatic treatments they fulfilled at least one of the following criteria: number of flushes/week ≥7; pruritus score ≥6; number of stools ≥4/day (i.e. diarrhea); micturition frequency ≥8/day (i.e. pollakiuria); Hamilton rating for depression ≥14; Fatigue Impact Scale (FIS) score ≥75; or EORTC quality-of-life questionnaire (QLQ-C30) score ≥60). […]"}, "[3]": {"system": "Ba/F3 cells expressing the D816V c-Kit mutation", "settings": "proliferation; cited from earlier work"}, "[4]": {"system": "patients with indolent forms of mastocytosis with handicap", "experiment": "Example 1 phase 2a study, safety assessment"}}, "data": [{"smiles": "Cc1ccc(NC(=O)c2ccc(CN3CCN(C)CC3)cc2)cc1Nc1nc(-c2cccnc2)cs1", "note": "[masitinib, 4-(4-methylpiperazin-1-ylmethyl)-N-[4-methyl-3-(4-pyridin-3ylthiazol-2-ylamino)phenyl]benzamide]", "values": [{"measurement": "patients with at least one adverse event suspected to be related to masitinib", "setting": "[1]; 20 patients", "value": 95, "unit": "%"}, {"measurement": "patients who discontinued treatment because of a suspected adverse event", "setting": "[1]; five patients", "value": 24, "unit": "%"}, {"measurement": "patients with suspected adverse event that led to dose reduction", "setting": "[1]; in vivo", "value": "Two"}, {"measurement": "patients with at least one serious adverse event suspected to be related to masitinib", "setting": "[1]; two patients", "value": 9, "unit": "%"}, {"measurement": "overall response rate", "setting": "[2]; new handicap thresholds and response criterion, n=11", "value": 52, "unit": "%"}, {"measurement": "overall response rate", "setting": "[2]; original handicap thresholds and response criterion, n=14", "value": 62, "unit": "%"}, {"measurement": "IC50", "setting": "[3]", "value": "5 ± 2", "unit": "µM"}, {"measurement": "Early study discontinuation: Adverse event", "setting": "[4]; All (N = 25)", "value": "12 N, %"}, {"measurement": "incidence of skin rash", "setting": "[4]; after W12", "value": "no incidence"}, {"measurement": "At least one suspected AE", "setting": "[4]; extension phase, All (N = 17)", "value": "10 (58.8%) subjects (%)"}, {"measurement": "suspected AE: Abdominal pain", "setting": "[4]; extension phase, All (N = 17)", "value": "1 (5.9%) subjects (%)"}, {"measurement": "suspected AE: Aphthous stomatitis", "setting": "[4]; extension phase, All (N = 17)", "value": "1 (5.9%) subjects (%)"}, {"measurement": "suspected AE: Arthralgia", "setting": "[4]; extension phase, All (N = 17)", "value": "1 (5.9%) subjects (%)"}, {"measurement": "suspected AE: Blepharitis", "setting": "[4]; extension phase, All (N = 17)", "value": "1 (5.9%) subjects (%)"}, {"measurement": "suspected AE: Cytolytic hepatitis", "setting": "[4]; extension phase, All (N = 17)", "value": "1 (5.9%) subjects (%)"}, {"measurement": "suspected AE: Dermatitis psoriasiform", "setting": "[4]; extension phase, All (N = 17)", "value": "1 (5.9%) subjects (%)"}, {"measurement": "suspected AE: Eczema", "setting": "[4]; extension phase, All (N = 17)", "value": "1 (5.9%) subjects (%)"}, {"measurement": "suspected AE: Gamma-glutamyltransferase increased", "setting": "[4]; extension phase, All (N = 17)", "value": "1 (5.9%) subjects (%)"}, {"measurement": "suspected AE: Gingivitis", "setting": "[4]; extension phase, All (N = 17)", "value": "1 (5.9%) subjects (%)"}, {"measurement": "suspected AE: Muscle spasms", "setting": "[4]; extension phase, All (N = 17)", "value": "1 (5.9%) subjects (%)"}, {"measurement": "suspected AE: Vomiting", "setting": "[4]; extension phase, All (N = 17)", "value": "1 (5.9%) subjects (%)"}, {"measurement": "At least one suspected AE", "setting": "[4]; extension phase, Mild", "value": "6 (35.3%) subjects (%)"}, {"measurement": "suspected AE: Arthralgia", "setting": "[4]; extension phase, Mild", "value": "1 (5.9%) subjects (%)"}, {"measurement": "suspected AE: Blepharitis", "setting": "[4]; extension phase, Mild", "value": "1 (5.9%) subjects (%)"}, {"measurement": "suspected AE: Dermatitis psoriasiform", "setting": "[4]; extension phase, Mild", "value": "1 (5.9%) subjects (%)"}, {"measurement": "suspected AE: Edema—all categories", "setting": "[4]; extension phase, Mild", "value": "1 (5.9%) subjects (%)"}, {"measurement": "suspected AE: Gamma-glutamyltransferase increased", "setting": "[4]; extension phase, Mild", "value": "1 (5.9%) subjects (%)"}, {"measurement": "suspected AE: Gingivitis", "setting": "[4]; extension phase, Mild", "value": "1 (5.9%) subjects (%)"}, {"measurement": "suspected AE: Nausea", "setting": "[4]; extension phase, Mild", "value": "2 (11.8%) subjects (%)"}, {"measurement": "suspected AE: Nausea/Vomiting", "setting": "[4]; extension phase, Mild", "value": "2 (11.8%) subjects (%)"}, {"measurement": "At least one suspected AE", "setting": "[4]; extension phase, Moderate", "value": "5 (29.4%) subjects (%)"}, {"measurement": "suspected AE: Abdominal pain", "setting": "[4]; extension phase, Moderate", "value": "1 (5.9%) subjects (%)"}, {"measurement": "suspected AE: Cytolytic hepatitis", "setting": "[4]; extension phase, Moderate", "value": "1 (5.9%) subjects (%)"}, {"measurement": "suspected AE: Eczema", "setting": "[4]; extension phase, Moderate", "value": "1 (5.9%) subjects (%)"}, {"measurement": "suspected AE: Muscle spasms", "setting": "[4]; extension phase, Moderate", "value": "1 (5.9%) subjects (%)"}, {"measurement": "suspected AE: Nausea/Vomiting", "setting": "[4]; extension phase, Moderate", "value": "1 (5.9%) subjects (%)"}, {"measurement": "suspected AE: Vomiting", "setting": "[4]; extension phase, Moderate", "value": "1 (5.9%) subjects (%)"}, {"measurement": "At least one suspected AE", "setting": "[4]; extension phase, Severe", "value": "1 (5.9%) subjects (%)"}, {"measurement": "suspected AE: Aphthous stomatitis", "setting": "[4]; extension phase, Severe", "value": "1 (5.9%) subjects (%)"}, {"measurement": "At least one suspected AE", "setting": "[4]; initial phase, Mild", "value": "11 (44.0%) subjects (%)"}, {"measurement": "suspected AE: Abdominal pain", "setting": "[4]; initial phase, Mild", "value": "2 (8.0%) subjects (%)"}, {"measurement": "suspected AE: Diarrhea", "setting": "[4]; initial phase, Mild", "value": "1 (4.0%) subjects (%)"}, {"measurement": "suspected AE: Edema - all categories", "setting": "[4]; initial phase, Mild", "value": "3 (12.0%) subjects (%)"}, {"measurement": "suspected AE: Muscle spasms", "setting": "[4]; initial phase, Mild", "value": "1 (4.0%) subjects (%)"}, {"measurement": "suspected AE: Nausea", "setting": "[4]; initial phase, Mild", "value": "5 (20.0%) subjects (%)"}, {"measurement": "suspected AE: Nausea/Vomiting", "setting": "[4]; initial phase, Mild", "value": "6 (24.0%) subjects (%)"}, {"measurement": "suspected AE: Vomiting", "setting": "[4]; initial phase, Mild", "value": "1 (4.0%) subjects (%)"}, {"measurement": "At least one suspected AE", "setting": "[4]; initial phase, Moderate", "value": "19 (76.0%) subjects (%)"}, {"measurement": "suspected AE: Abdominal pain", "setting": "[4]; initial phase, Moderate", "value": "3 (12.0%) subjects (%)"}, {"measurement": "suspected AE: Asthaenia", "setting": "[4]; initial phase, Moderate", "value": "4 (16.0%) subjects (%)"}, {"measurement": "suspected AE: Diarrhea", "setting": "[4]; initial phase, Moderate", "value": "2 (8.0%) subjects (%)"}, {"measurement": "suspected AE: Dyspnoea", "setting": "[4]; initial phase, Moderate", "value": "3 (12.0%) subjects (%)"}, {"measurement": "suspected AE: Edema - all categories", "setting": "[4]; initial phase, Moderate", "value": "8 (32.0%) subjects (%)"}, {"measurement": "suspected AE: Eructation", "setting": "[4]; initial phase, Moderate", "value": "2 (8.0%) subjects (%)"}, {"measurement": "suspected AE: Headache", "setting": "[4]; initial phase, Moderate", "value": "5 (20.0%) subjects (%)"}, {"measurement": "suspected AE: Muscle spasms", "setting": "[4]; initial phase, Moderate", "value": "7 (28.0%) subjects (%)"}, {"measurement": "suspected AE: Nausea", "setting": "[4]; initial phase, Moderate", "value": "7 (28.0%) subjects (%)"}, {"measurement": "suspected AE: Nausea/Vomiting", "setting": "[4]; initial phase, Moderate", "value": "8 (32.0%) subjects (%)"}, {"measurement": "suspected AE: Rash - all categories", "setting": "[4]; initial phase, Moderate", "value": "6 (24.0%) subjects (%)"}, {"measurement": "suspected AE: Vomiting", "setting": "[4]; initial phase, Moderate", "value": "4 (16.0%) subjects (%)"}, {"measurement": "At least one suspected AE", "setting": "[4]; initial phase, Severe", "value": "9 (36.0%) subjects (%)"}, {"measurement": "suspected AE: Asthaenia", "setting": "[4]; initial phase, Severe", "value": "3 (12.0%) subjects (%)"}, {"measurement": "suspected AE: Diarrhea", "setting": "[4]; initial phase, Severe", "value": "1 (4.0%) subjects (%)"}, {"measurement": "suspected AE: Edema - all categories", "setting": "[4]; initial phase, Severe", "value": "2 (8.0%) subjects (%)"}, {"measurement": "suspected AE: Eructation", "setting": "[4]; initial phase, Severe", "value": "1 (4.0%) subjects (%)"}, {"measurement": "suspected AE: Muscle spasms", "setting": "[4]; initial phase, Severe", "value": "1 (4.0%) subjects (%)"}, {"measurement": "suspected AE: Nausea", "setting": "[4]; initial phase, Severe", "value": "1 (4.0%) subjects (%)"}, {"measurement": "suspected AE: Nausea/Vomiting", "setting": "[4]; initial phase, Severe", "value": "1 (4.0%) subjects (%)"}, {"measurement": "suspected AE: Rash - all categories", "setting": "[4]; initial phase, Severe", "value": "2 (8.0%) subjects (%)"}, {"measurement": "treatment-related SAEs", "setting": "[4]; one patient, two episodes of agranulocytosis at 3 mg/kg/day", "value": "Two"}, {"measurement": "patients who withdrew due to occurrence of AEs", "setting": "[4]; prior to W12, 2/25 patients", "value": 8, "unit": "%"}]}]}
